Measurements taken from PubChem BioAssay (NCI).
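Interpolation was linear, between the two tested concentrations surrounding the appropriate level; five concentrations were tested over 48 hours in 96-well plates. GI50 = concentration required for 50% inhibition of growth. The concentration for full growth arrest is given as TGI.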

Tests used:
Test in all cases: inhibition of tumour cell growth, NCI panel, 48 h
A549 NSCLC = test system: A549 NSCLC
COLO 205 colon = test system: COLO 205 colon
HL-60(TB) leukemia = test system: HL-60(TB) leukemia
HOP-62 NSCLC = test system: HOP-62 NSCLC
MDA-MB-435 = test system: MDA-MB-435
PC-3 prostate = test system: PC-3 prostate
SF-539 CNS = test system: SF-539 CNS
SNB-75 CNS = test system: SNB-75 CNS

Structure (SMILES)	GI50 (A549 NSCLC) [µM]	TGI (A549 NSCLC) [µM]	GI50 (COLO 205 colon) [µM]	TGI (COLO 205 colon) [µM]	GI50 (HL-60(TB) leukemia) [µM]	TGI (HL-60(TB) leukemia) [µM]	GI50 (HOP-62 NSCLC) [µM]	TGI (HOP-62 NSCLC) [µM]	GI50 (MDA-MB-435) [µM]	TGI (MDA-MB-435) [µM]	GI50 (PC-3 prostate) [µM]	TGI (PC-3 prostate) [µM]	GI50 (SF-539 CNS) [µM]	TGI (SF-539 CNS) [µM]	GI50 (SNB-75 CNS) [µM]	TGI (SNB-75 CNS) [µM]
Cn1c(=O)c(Oc2ccc(F)cc2F)cc2cnc(NC(C)(C)CO)nc21	> 25	> 25	> 25	> 25	> 25	> 25	> 25	> 25	> 25	> 25	> 25	> 25	> 25	> 25	> 25	> 25
COC(=O)C1=C(O)[C@H](C(=O)OC)C2(O)C(C(=O)OC)[C@H](c3ccc(OC(=O)C(C)c4ccccc4)cc3)C[C@@H]1[C@@H]2C(=O)OC (some centres undefined)	19.4	> 50	13.7	36.3	43.3	> 50	23.8	> 50	10.4	25.1	36.2	> 50	11.8	34.1	16.6	> 50
Oc1ccc(Nc2ccc3ccccc3c2)cc1	4.84	27	17.5	35.4	2.66	21.3	10.4	41.5	3.27	14	4.41	68.2	3.38	18.6	2.78	35.9
CC(=O)Nc1cc2cc(N)ccc2oc1=O		> 100		> 100		> 100		> 100		> 100		> 100		> 100		
N#Cc1c(NCc2ccccc2)nc(NCc2ccccc2)c(C#N)c1-c1ccc(O)cc1	34.1	> 100	36.3	> 100			17.3	93	25.2	69.8	25.6	> 100	13.1	37.4	67.8	> 100
COC1C(O)CC(OC2CC(OC3CC(O[C@@H]4C(=O)c5c(cc6cc(OC7CC(OC8CC(O)C(O)C(C)O8)C(O)C(C)O7)c(C)c(O)c6c5O)CC4[C@H](OC)C(=O)O)OC(C)C3O)OC(C)C2O)OC1C (some centres undefined)	1.66	> 33.3	1.09	6.9	5.53	> 33.3	1.63	> 33.3	2.56	24.7	2.4	> 33.3			1.03	7.89
O=c1[nH]c2ccccc2c2nc3ccccc3n12		> 100		> 100		> 100		> 100		> 100		> 100		69.1		
C=C1C(=O)O[C@H]2[C@H]1CC/C(COC(=O)NCc1c[nH]c3ccccc13)=C\CC[C@@]1(C)O[C@@H]21	12.5	28.6	1.81	3.58	1.54	4.22	11.2	23.7	2.57	11.8	5.16	18.9	2.82	10.4	9.86	21.7
O=C(/C=C/c1ccc(Cl)cc1)c1ccccc(=O)c1O		> 39.2		6.53		2.04		21.1		20.8		20		17.5		12.3
COc1ccc(/C=C2\CN(C(=O)C(Cl)Cl)C/C(=C\c3ccc(OC)cc3)C2=O)cc1	2.57	> 100			0.791	7.52										
COC(=O)c1ccc2c(c1)C(=O)c1c-2n(CCCCl)c(=O)c2cc([N+](=O)[O-])ccc12			> 100	> 100	> 100	> 100	43.3	> 100	> 100	> 100	> 100	> 100	83.6	> 100	61.7	> 100
CSC(=NC#N)S/C=C/C(=O)c1ccccc1	90.6	> 100	35.2	> 100			36	> 100	34.7	> 100	33.2	> 100	22.6	49.4		
O=C1C(Cl)=C(Nc2ccc(Nc3ccccc3)c(NC3=C(Cl)C(=O)c4ccccc4C3=O)c2)C(=O)c2ccccc21	8.25	> 100			2.07	4.65	2.71	> 100	25	> 100	3.63	24.8	3.43	24.2	2.3	6.97
COc1cc2c(c(OC)c1OC)-c1ccc(O)cc1[C@@H](NC(C)=O)CC2	0.0666	> 100	0.0319	0.0859	0.0227	0.0645	0.051	> 100	0.0206	0.0463	0.0456	> 100	0.0261			
NCCc1ccc(S(=O)(=O)F)cc1	> 100	> 100	> 100	> 100			57.8	> 100	65.1	> 100	42.8	> 100	14.8	70	> 100	> 100
CCCCCCCCCCCCCCCC1=NCCN1	2.06	4	1.86	3.66	1.73	3.89			1.7	3.26	2.03	4.24	1.89	3.6	1.58	3.44
Nc1c(C(=O)Nc2ccccc2)sc2nc3c(cc12)CCCCC3	0.696	> 100			0.319	1.85	0.88	13.9	0.205	0.522	0.547	> 100	0.307	12	0.378	2.91
O=c1c2ccc(S(=O)(=O)c3ccc4c(=O)n5c6ccccc6nc5c5cccc3c45)c3cccc(c32)c2nc3ccccc3n12		> 100		> 100				> 100		> 100		> 100		> 100		
